Reference: patent publication US20260014225A1, “USE OF HULLESS BARLEY GRASS EXTRACT IN CONTROLLING COLORECTAL CANCER AND ULCERATIVE COLITIS” (Shanghai Jiao Tong University, priority 2024, published 2026)

Key:
Type in all cases: in vivo, C57BL/6N male mice
[1] = tested on: colon tissue of colorectal cancer mice; experiment: Colon Swiss roll H&E histopathology of colorectal cancer mice; settings: AOM/DSS colorectal cancer mice, compared with the model group (FIG. 13)
Method: The colon was taken out from the fixative in a fume hood, one end of the colon was gently clamped with ophthalmic forceps, and the entire colon was gently rolled around the forceps in one direction. Be careful not to do it too tight or too loose, otherwise the intestinal villi might fall over or become loose. The Swiss roll was prepared by piercing the edge of the rolled intestine with a fine needle to complete the fixation, and the ophthalmic forceps were removed in the center of the colon. The Swiss roll was placed in an embedding frame and labeled, followed by dehydration and wax immersion, paraffin embedding, paraffin sectioning, dewaxing to water, hematoxylin staining, eosin staining, dehydration and sealing, microscopic examination, and graphic analysis.

TNF-α, IL-6, IL-1β mRNA = experiment: qPCR of inflammatory factors in tumor tissue of colorectal cancer mice
Method: (§1) The whole colon of a mouse was divided into two major parts, namely the tumor segment and the white-side segment. 20 mg of tumor tissue and white-side tissue were taken from the same mouse for total RNA extraction and reverse transcription reaction. The specific operation was the same as above.
(§2) The experimental data were plotted using GraphPad Prism9.0, and statistical analysis was conducted using one-way ANOVA, where “ns” indicated no significant difference, “*” indicated p<0.05, “**” indicated p<0.01, “***” indicated p<0.001, and “****” indicated p<0.0001. The relative expression of mRNA in qPCR was calculated using the […] method.

[2] = tested on: colitis-associated colorectal cancer model in mice; experiment: AOM/DSS-induced colitis-associated colorectal cancer mouse model (body weight, colon, tumors, serum IL-6)
Method: In this experiment, a mouse colitis-associated colorectal cancer model was established using AOM/DSS, and a specific process is shown in FIG. 2. C57BL/6N male mice were placed in an SPF barrier environment for adaptive feeding for one week, while mice with abnormal weight were eliminated. The remaining mice were randomly divided into […], namely: blank group, 3% DSS+normal saline group (a model group), 3% DSS+300 mg/kg mesalazine (a positive drug group), 3% DSS+600 mg/kg hulless barley grass-derived polyphenol crude extract (Example 1), 3% DSS+400 mg/kg hulless barley grass-derived polysaccharide crude extract (Comparative Example 1), 3% DSS+200 mg/kg hulless barley grass-derived lipid crude extract (Comparative Example 2), and 3% DSS+600 mg/kg hulless barley seed-derived polyphenol crude extract (Comparative Example 3). There were ten mice in each group. In the second week, the mice in the model group, positive group, grass polyphenol group, polysaccharide group, lipid group, and seed polyphenol group were intraperitoneally injected with 10 mg/kg AOM. From the third week, the mice drank 3% DSS aqueous solution for one week, and then the DSS aqueous solution was replaced with sterile water for the mice to drink. The experiment ended after six weeks. During the entire experiment, each group of mice was gavaged with medication according to the grouping. The conditions of mice were observed and their weights were recorded each time they were gavaged. At the end of the experiment, all mice were anesthetized, and the colon (from the anus to the cecum), liver, kidney, and spleen tissues of the mice were collected and weighed after dissection. The intestinal contents were gently rinsed with PBS and the length of the mouse colon tissue was measured. The colon was longitudinally cut open with ophthalmic scissors, and the number and size of tumors in the mouse colon were measured with a vernier caliper and recorded. A part of the whole colon of the mouse was taken for the subsequent preparation of colon Swiss rolls, fixated in 4% paraformaldehyde fixative for histopathological analysis, and the remaining tissues were quick-frozen in liquid nitrogen and then transferred to a −80° C. refrigerator for further measurement of qPCR and other experiments.

[3] = tested on: acute ulcerative colitis model in mice; experiment: DSS-induced acute ulcerative colitis mouse model (body weight, DAI, colon length, survival); settings: 3% DSS colitis mice, gavage; model group 2.93, blank 0 (FIG. 3C)
Excerpt: In this experiment, DSS was used to construct an acute ulcerative colitis model in mice, and a specific process is shown in FIG. 1. C57BL/6N male mice were placed in an SPF barrier environment for adaptive feeding for one week, while mice with abnormal weight were eliminated. […] From the first day, mice in all groups except the blank group were given drugs by gavage throughout the whole process; from the fourth day, mice in all groups (except the blank group) drank 3% DSS aqueous solution freely for one week; from the tenth day, 3% DSS was replaced with sterile drinking water for experimental mice, and the mice were allowed to recover naturally for one week; on the eighteenth day, the experiment ended and samples were collected from the mice. After the mice were anesthetized, blood was collected from their orbits. After blood collection, the liver, kidney, and spleen tissues of the mice were collected and weighed. The colon tissue from the cecum to the anus of the mice was collected and its length was measured. A 1 cm to 2 cm colon tissue from the anus was fixated in 4% paraformaldehyde solution for histopathological staining. […] During the mouse modeling period, the mouse status was observed daily and the mouse weight was recorded.
The fresh mouse feces were collected and the fecal occult blood was determined according to the instructions of the fecal occult blood assay kit. […]

intestinal flora = experiment: 16S rRNA sequencing of intestinal flora in colorectal cancer mice; settings: colorectal cancer mice (FIG. 16D)
Method: The mouse feces was collected using a 1.5 mL EP tube, immediately frozen in liquid nitrogen, and stored at −80° C. before sample delivery. 6 samples of mouse colon contents were collected from each group and placed in dry ice for 16S rRNA sequencing by Qingdao Biomarker Technologies Co., LTD.

COX-2, EGFR, INOS genes = experiment: qPCR of COX-2, EGFR and INOS genes in tumor tissue of colorectal cancer mice
Method: as §1, §2

[4] = AOM/DSS colorectal cancer mice, compared with the model group (FIG. 12C)

## Nc1ccc(O)c(C(=O)O)c1 [mesalazine]
[1]
  colon thickness and tumors in pathological sections (H&E): showed a similar trend
TNF-α, IL-6, IL-1β mRNA; compared with the model group (FIG. 14A)
  relative expression level of TNF-α mRNA: significantly reduced
TNF-α, IL-6, IL-1β mRNA; compared with the model group (FIG. 14B)
  relative expression level of IL-6 mRNA: significantly reduced
TNF-α, IL-6, IL-1β mRNA; compared with the model group (FIG. 14C)
  relative expression level of IL-1β mRNA: significantly reduced
[2]; AOM/DSS colorectal cancer mice (FIG. 11C)
  colon weight per unit length (increase in tumor weight caused by modeling): effectively reduced the increase in tumor weight caused by modeling
[2]; [4]
  proportion of tumors above 3 mm: decreased
  proportion of tumors less than 2 mm: increased significantly
  proportion of tumors of 2 mm to 3 mm: decreased
[2]; AOM/DSS colorectal cancer mice, last day (FIG. 10B)
  body weight when the experiment was over: significant decrease
[3]
  disease activity index (DAI): 2.33
Intestinal flora
  richness and uniformity of the intestinal flora (rank abundance curve): closest to those of the blank group
COX-2, EGFR, INOS genes; compared with the model group (FIG. 15A)
  expression level of COX-2 gene: significantly downregulated
COX-2, EGFR, INOS genes; compared with the model group (FIG. 15B)
  expression level of EGFR gene: significantly downregulated
COX-2, EGFR, INOS genes; compared with the model group (FIG. 15C)
  expression level of INOS gene: significantly downregulated
